{"source": "patent US10119124B2", "about": "(priority 2007, dated 2018)", "key": {"[1]": {"tested_on": "M2 mutants and wild-type WSN-UdM viruses", "format": "cell-based, influenza A virus"}, "[2]": {"tested_on": "M2 mutants and wild-type WSN-UdM viruses", "settings": "cited from earlier work"}}, "data": [{"smiles": "NC12CC3CC(CC(C3)C1)C2", "note": "[amantadine]", "values": [{"measurement": "effect on yield and plaque size of wild-type WSN-UdM virus", "setting": "[1]", "result": "markedly reduced"}, {"measurement": "concentrations at which the drug selectively inhibits viral replication", "setting": "[2]; cell culture (Appleyard, 1977)", "result": "0.1 to 5", "unit": "µM"}, {"measurement": "concentrations of nonspecific action (increase in pH of endosomes)", "setting": "[2]; cell culture (Daniels et al., 1985)", "result": "> 50", "unit": "μM"}]}]}
